Results from patent publication EP0006772A1, “Thieno and furopyridone derivatives, process for their preparation and medicinal preparations containing them” (OMNIUM FINANCIER AQUITAINE POUR L'HYGIENE ET LA SANTE - …, priority 1978, dated 1980).
Read-outs that look alike come from different tables or passages of the source.

Assays:
[1] = test system: agrégation plaquettaire à l'A.D.P.; test: ADP-induced platelet aggregation in plasma of orally treated rats (ex vivo); design: species or system rats de souche Wistar; conditions: Rattus norvegicus, 100 mg/kg oral, 3 hours after treatment, versus control, 10 µM A.D.P., read-out: Pourcentage d'inhibition A.D.P.
Description: (§1) Chez des rats de souche Wistar, on effectue un prélèvement sanguin dans la veine jugulaire. A partir de ce sang citraté et après centrifugation, on reconstitue un plasma contenant 600 000 ± 20 000 plaquettes par mm^3, qui servira dans toutes les mesures d'agrégation.
(§2) On place 0,4 ml de plasma dans un tube siliconé pourvu d'une barre aimantée elle-même siliconée. Le tube est introduit dans un agrégomètre couplé à un appareil permettant d'enregistrer les variations de densité optique. Lorsque la transmission de la lumière a atteint une valeur stable, on introduit dans le tube 0,5 ml d'une solution contenant 10 µM d'A.D.P. (Adénosine-Di Phosphate).
(§3) L'agrégation des plaquettes provoque alors une augmentation de la transmission lumineuse suivie d'une diminution consécutive à la phase de désagrégation.
(§4) La variation maximale de densité optique ainsi déterminée caractérise l'intensité de l'agrégation.
(§5) Différents lots de 20 rats sont uiilisés, chaque lot recevant un dérivé à tester par la vcie orale, à la dose de 100 mg/kg de poids corporel. Les résultats obtenus au cours de ces 2 essais sont rapportés dans le Tableau I suivant qui indique le pourcentage d'inhibition de l'agrégation plaquettaire obtenu, par rapport au témoin, 3 heures après le traitement par le médicament de l'invention, dans le test de l'A.D.P. et au collagène.

[2] = test system: agrégation plaquettaire au collagène; test: Collagen-induced platelet aggregation in plasma of orally treated rats (ex vivo); design: species or system rats de souche Wistar; conditions: Rattus norvegicus, 100 mg/kg oral, 3 hours after treatment, versus control, collagen (bovine tendon extract), read-out: Pourcentage d'inhibition Collagène
Description: as §1, §2, §3, §4
La solution d'A.D.P. est remplacée par une solution de collagène (extrait de tendons bovins).
as §5

[3] = test system: oedème localisé provoqué par la carragénine; test: Carrageenan-induced localised paw oedema; type: in vivo; conditions: rat, 100 mg/kg oral (1 h before, at injection, 1 h and 2.5 h after)
Description: Une solution de carragénine (0,1 ml) à 1 % est injectée dans les fléchisseurs métatarsiens de la patte postérieure droite du rat au temps O. Les animaux du lot traité reçoivent en outre, par la voie orale, 100 mg par kg du dérivé à tester respectivement 1 heure avant, en même temps que l'injection de l'agent phlogogène, puis 1 heure et 2 heures et demi après. Les mesures qui sont effectuées à l'aide du micromètre de ROCH aux temps 0, 1 heure, 2 heures, 3 heures et 5 heures après l'administration de la carragénine permettent de déterminer, en fonction du temps, le pourcentage d'activité anti-inflammatoire par comparaison avec le lot témoin.

[4] = test system: oedème généralisé à l'ovalbumine; test: Ovalbumin-induced generalised oedema; type: in vivo; conditions: po, rat, 100 mg/kg per os 1 h before and together with ovalbumin
Description: Une injection intrapéritonéale simultanée de 1 ml d'ovalbumine et de 0,5 ml d'une solution aqueuse de bleu Evans à 1 % est effectuée sur le rat. D'autre part, on administre per os aux animaux du lot traité 100 mg/kg du dérivé à tester 1 heure avant et en même temps que l'ovalbumine. L'intensité du phénomène ainsi provoqué est notée par un chiffre allant de 1 à 5 suivant la progression du syndrome inflammatoire. On détermine ainsi la moyenne de l'intensité oedémateuse et le pourcentage de diminution de la réaction oedémateuse par rapport au témoin, en fonction du temps.
Les pourcentages d'activité anti-inflammatoire obtenus à la 2ème heure et 3ème heure après l'injection d'ovalbumine sont consignés dans le Tableau III suivant.

[5] = 1 h after carrageenan, read-out: pourcentage d'activité anti-inflammatoire Ière heure
[6] = 2 h after carrageenan, read-out: pourcentage d'activité anti-inflammatoire 2ème heure
[7] = 3 h after carrageenan, read-out: pourcentage d'activité anti-inflammatoire 3ème heure
[8] = 5 h after carrageenan, read-out: pourcentage d'activité anti-inflammatoire 5ème heure
[9] = 2 h after ovalbumin injection, read-out: Pourcentage d'activité anti-inflammatoire 2ème heure
[10] = 3 h after ovalbumin injection, read-out: Pourcentage d'activité anti-inflammatoire 3ème heure

SMILES	inhibition at 100 mg/kg [1]	inhibition at 100 mg/kg [2]	inhibition in vivo at 100 mg/kg [3, 5]	inhibition in vivo at 100 mg/kg [3, 6]	inhibition in vivo at 100 mg/kg [3, 7]	inhibition in vivo at 100 mg/kg [3, 8]	inhibition in vivo at 100 mg/kg [4, 9]	inhibition in vivo at 100 mg/kg [4, 10]
O=c1[nH]c(-c2ccccc2)cc2ccsc12 [dérivé 15, Phényl-5 thiéno(2,3-c)pyridone-7]	62.5%	90.8%	39%	43%	48%	51%	47%	53%
Cc1cc2c(=O)[nH]c(-c3ccccc3)cc2s1 [dérivé 13, Méthyl-2 phényl-6 thiéno(3,2-c)pyridone-4]	61.5%	90.5%	38%	42%	47%	50%	46%	53%
COc1cc(-c2cc3sccc3c(=O)[nH]2)cc(OC)c1OC [dérivé 8, (triméthoxy-3,4,5 phényl)-6 thiéno(3,2-c)py-ridone-4]	60.4%	92.2%	36%	39%	45%	59%	46%	53%
O=c1[nH]c(-c2ccccc2[N+](=O)[O-])cc2sccc12 [dérivé 9, o-nitrophényl-6 thiéno(3,2-c)pyridone-4]	59.1%	90.8%	38%	41%	46%	50%	46%	52%
O=c1[nH]c(-c2cccc(C(F)(F)F)c2)cc2sccc12 [dérivé 11, m-trifluorométhylphényl-6 thiéno(3,2-c)pyri-done-4]	60.1%	90.7%	40%	44%	49%	52%	51%	57%
O=c1[nH]c(-c2ccccc2)cc2sc(Cl)cc12 [dérivé 12, Chloro-2 phényl-6 thiéno(3,2-c)pyridone-4]	60.6%	91.4%	36%	40%	46%	50%	45%	52%
O=c1[nH]c(-c2cccnc2)cc2sccc12 [dérivé 14, (Pyridyl-3)-6 thiéno(3,2-c)pyridone-4]	60.8%	91.2%	38%	41%	47%	50%	48%	54%
O=c1[nH]c(-c2ccccc2)cc2occc12 [dérivé 17, Phényl-6 furo(3,2-c)pyridone-4]	59.8%	90.4%	41%	44%	49%	51%	45%	51%
COc1ccc(-c2cc3sccc3c(=O)[nH]2)cc1 [dérivé 6, p-méthoxyphényl-6 thiéno(3,2-c)pyridone-4]	62.2%	91.7%	40%	43%	49%	52%	52%	58%
O=c1[nH]c(-c2ccc(F)cc2)cc2sccc12 [dérivé 2, p-fluorophényl-6 thiéno(3,2-c)pyridone-4]	60.5%	91.7%	37%	41%	46%	50%	48%	54%
O=c1[nH]c(-c2ccc(Cl)cc2)cc2sccc12 [dérivé 4, p-chlorophényl-6 thiéno(3,2-c)pyridone-4]	61.2%	90.5%	41%	44%	48%	52%	47%	53%
Cc1ccc(-c2cc3sccc3c(=O)[nH]2)cc1 [dérivé 5, p-tolyl-6 thiéno(3,2-c)pyridone-4]	62.6%	91.4%	38%	41%	46%	51%	50%	55%
O=c1[nH]c(-c2ccc([N+](=O)[O-])cc2)cc2sccc12 [dérivé 10, p-nitrophényl-6 thiéno(3,2-c)pyridone-4]	60.4%	90.2%	41%	45%	51%	53%	49%	55%
COc1ccc(-c2cc3sccc3c(=O)[nH]2)cc1OC [dérivé 7, (diméthoxy-3,4 phényl)-6 thiéno(3,2-c)pyrido-ne-4]	61.7%	90.6%	40%	44%	48%	51%	48%	55%
O=c1[nH]c(-c2ccccc2Cl)cc2sccc12 [dérivé 3, o-chlorophényl-6 thiéno(3,2-c)pyridone-4]	58.8%	92%	37%	40%	45%	48%	48%	55%
O=c1[nH]c(-c2ccccc2Cl)cc2ccsc12 [dérivé 16, o-chlorophényl-5 thiéno(2,3-c)pyridone-7]	60.1%	90.2%	37%	41%	47%	50%	46%	54%
O=c1[nH]c(-c2ccccc2)cc2sccc12 [dérivé 1, Phényl-6 thiéno(3,2-c)pyridone-4]	62%	91.4%	35%	39%	45%	49%	45%	52%
